From patent US20150313913A1, “POSITIVE ALLOSTERIC MODULATORS OF THE GABA-A RECEPTOR IN THE TREATMENT OF AUTISM” (UNIVERSITY OF WASHINGTON THROUGH ITS CENTER FOR …, priority 2013, published 2015)
Entries after “also recorded” stand apart in the source; their conditions may differ.

Columns and labels:
BTBR mice [1] = assay: Elevated plus maze test; type: in vivo; details: 0.05 mg/kg
Method: (§1) The test was performed as previously described (Han et al., 2012). The maze used in this study has two closed arms (5.1×30 cm) surrounded by 20-cm high non-transparent walls and two open arms (5.1×30 cm). During the 10 min of trial, times spent in closed, center, and open arms, and total distance traveled during the trial were measured by the video-tracking software (EthoVision XT 8.5, Noldus Technology).

C57BL/6J mice [2] = assay: Elevated plus maze test; type: in vivo; details: low doses of clonazepam
Method: as §1

wild-type mice = assay: Three-chamber social preference test; type: in vivo; details: 0.0625 mg/kg, listed as CLZ
Method: The test was performed as described previously^34 with minor modifications. […] Each partition has a square opening (5×5 cm) in the bottom center. A cylindrical wire cage (10.5 cm diameter; GALAXY PENCIL CUP™ […] D[…]™) was used as an inanimate object or the cage housing a stranger mouse. A cylindrical bottle filled with water was placed on the top of the wire cup to prevent the test mouse from climbing to the top of the cup. The three-chamber unit and wire cups were cleaned with 70% ethanol and wiped with paper towels between each trail. […] The mouse was allowed to freely explore each chamber. […] The wire cage on the other side remained empty (E). […] Thus, the test mouse would now have the choice between a mouse that was already familiar (M1) and a new stranger mouse (M2). […] The movement of the mouse was recorded by a USB webcam (LIFECAM™ HD-6000, MICROSOFT™) and PC-based video capture software (WINAVI™ Video Capture, ZJ MEDIA DIGITAL TECHNOLOGY™). The recorded video file was further analyzed by off-line video tracking software (ETHOVISION™ XT 7.0).
Oral administration is specifically contemplated for the methods described herein, and is well known for both benzodiazepines and non-BDZ GABA-A enhancers as described herein.

BTBR mice [3] = assay: Barnes circular maze test; type: in vivo
Excerpt: (§2) The Barnes circular maze is a planar, round white PLEXIGLAS™ platform (92 cm diameter), 1 m above the floor, with 20 evenly spaced holes (7 cm diameter) located 5 cm from the perimeter. A black escape box (15×7×7 cm) was placed under one hole. Spatial cues with distinct patterns and shapes were placed on the wall of the testing room. A 500 lux light was turned on during the trial. An experimenter remained in the same place with minimal movement throughout the trials. The platform and the escape box were cleaned thoroughly with 70% ethanol and paper towels between each trial to remove olfactory cues. One day before the training trials began, test mice were habituated in the target box for 3 min. The training trials were repeated for 4 consecutive days, and 3 trials were performed each day with 20 min inter-trial intervals. At the beginning of each trial, a test mouse was placed in a cylindrical holding chamber (10 cm diameter) located in the center of the maze. After 10 s of holding time, the mouse was allowed to search for the target hole for 3 min. […] When the mouse entered the escape box, the light was turned off and the mouse remained undisturbed for 1 min. The movement of the mouse was recorded, and the number of errors made and the latency to find the target hole were measured during the training trials by video tracking software. On day 5, the probe trial was performed with each mouse. The escape box was removed, and the test mouse was allowed to find the target hole freely for 90 s. During the probe trial, total distance traveled and the latency to find the target hole were measured. % correct pokes and % time in the target area were also measured.
(§3) The number of errors made and the latency to find the target hole were measured during the 3 min-training trials by video tracking software.
(§4) During the 90 second-probe trial, the latency to find the target hole, % correct pokes, and % time in the target area were measured by the video-tracking software (EthoVision XT 8.5, Noldus Technology).

C57BL/6J mice [4] = assay: Barnes circular maze test; type: in vivo; details: 0.05 mg/kg
Excerpt: as §2, §3, §4

GABA-A α1 subtype = molecular target: T1, GABA-A α1 subtype (Homo sapiens, UniProt P14867+P18507); details: cited from earlier work
T1 sequence (P14867 28-456): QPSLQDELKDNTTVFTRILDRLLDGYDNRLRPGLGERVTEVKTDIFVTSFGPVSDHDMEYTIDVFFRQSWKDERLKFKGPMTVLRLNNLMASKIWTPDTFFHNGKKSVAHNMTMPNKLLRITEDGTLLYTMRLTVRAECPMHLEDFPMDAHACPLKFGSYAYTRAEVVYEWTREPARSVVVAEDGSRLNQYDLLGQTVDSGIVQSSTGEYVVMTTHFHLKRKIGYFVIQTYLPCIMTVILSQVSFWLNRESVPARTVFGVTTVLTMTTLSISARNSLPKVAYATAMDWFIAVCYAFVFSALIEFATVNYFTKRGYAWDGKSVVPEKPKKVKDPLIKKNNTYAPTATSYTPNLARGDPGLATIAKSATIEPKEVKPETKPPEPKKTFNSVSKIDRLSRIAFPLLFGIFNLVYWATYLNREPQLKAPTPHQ
T1 sequence (P18507 40-467 limits assumed): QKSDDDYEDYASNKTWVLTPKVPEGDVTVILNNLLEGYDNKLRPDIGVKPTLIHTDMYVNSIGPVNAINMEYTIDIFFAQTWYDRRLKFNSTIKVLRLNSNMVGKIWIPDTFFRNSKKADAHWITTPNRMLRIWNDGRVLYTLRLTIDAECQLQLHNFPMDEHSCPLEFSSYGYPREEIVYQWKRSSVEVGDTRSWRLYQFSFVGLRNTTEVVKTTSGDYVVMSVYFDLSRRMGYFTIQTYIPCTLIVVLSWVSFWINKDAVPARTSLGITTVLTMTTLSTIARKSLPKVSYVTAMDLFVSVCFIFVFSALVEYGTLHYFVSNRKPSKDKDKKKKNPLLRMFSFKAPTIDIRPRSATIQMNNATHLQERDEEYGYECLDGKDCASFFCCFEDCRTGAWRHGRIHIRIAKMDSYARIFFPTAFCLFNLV
T1 sequence (P28472 26-473 partner): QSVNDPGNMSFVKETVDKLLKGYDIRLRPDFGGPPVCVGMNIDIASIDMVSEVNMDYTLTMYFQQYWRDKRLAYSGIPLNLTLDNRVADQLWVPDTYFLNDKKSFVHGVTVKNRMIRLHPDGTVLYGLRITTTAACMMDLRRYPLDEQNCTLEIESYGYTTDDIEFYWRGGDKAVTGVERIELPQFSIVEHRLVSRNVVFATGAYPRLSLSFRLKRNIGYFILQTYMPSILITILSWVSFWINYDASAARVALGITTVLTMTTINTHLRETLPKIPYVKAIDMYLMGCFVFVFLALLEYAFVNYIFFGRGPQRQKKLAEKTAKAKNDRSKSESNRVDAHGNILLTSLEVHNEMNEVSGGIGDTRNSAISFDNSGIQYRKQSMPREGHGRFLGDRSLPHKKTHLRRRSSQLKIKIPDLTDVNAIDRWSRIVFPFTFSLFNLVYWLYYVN

[5] = cited from earlier work

| SMILES | time in open arms (indicator of abnormally low anxiety) (BTBR mice [1]) | sedation (total distance moved during elevated plus maze) (BTBR mice [1]; BTBR and C57BL/6J mice (FIG. 43I)) | anxiety-like behavior: avoidance of the open arms (C57BL/6J mice [2]) | social interaction, 3-chamber social preference test (wild-type mice) | spatial learning during training sessions (latency, errors) (BTBR mice [3]; 0.05 mg/kg) | spatial memory in probe trials (BTBR mice [3]; single low dose 30 min prior) | learning performance and spatial memory (C57BL/6J mice [4]) | action at the α1 subtype (GABA-A α1 subtype) | substitution for chlordiazepoxide in animals ([5]; drug discrimination) | substitution for zolpidem in animals ([5]; drug discrimination) | sedative effects in animal studies ([5]; even at high doses) |
| --- | --- | --- | --- | --- | --- | --- | --- | --- | --- | --- | --- |
| O=C1CN=C(c2ccccc2Cl)c2cc([N+](=O)[O-])ccc2N1 [Clonazepam] | changed toward the values for C57BL/6J mice | did not cause sedation; also recorded: without sedation | little effect | no effect; also recorded: absent; also recorded: not changed | significantly improved | increased | regardless of clonazepam treatment; also recorded: significantly worsened | – | – | – | – |
| Cn1ncnc1COc1nn2c(-c3cc(F)ccc3F)nnc2cc1C(C)(C)C [L-838,417] | – | – | – | – | – | – | – | antagonist | substitutes for the anxiolytic benzodiazepine chlordiazepoxide | not for the hypnotic imidazopyridine drug zolpidem | no sedative effects |
